The values that follow come from US20040214850A1, “1-glyoxylamide indolizines for treating cancer” (Synta Pharmaceuticals Corp., priority 2001, published 2004).

Where two headings read alike, the source gives them in different places.

The test system of test [1] is DU-145 (human prostate cancer). Nature of the test: In vitro anti-cancer activity, MTS growth inhibition assay, DU-145. The class given is cell-based. On the procedure: (§1) The in vitro activity of the compounds was determined in the following seven human cancer cell lines. MDA435 (human breast cancer), MIP101 (human colon cancer), HL-60 (human myeloid leukemia), U937 (human leukemia), p388 (murine leukemia), DU-145 (human prostate cancer), MES-SA (human uterine sarcoma) were obtained from ATCC (American Type of Culture Collection).
(§2) The cell lines were maintained in RPMI1640 (GIBCO) supplemented with 10% FCS, 100 units/ml penicillin, 100 ug/ml streptomycin, and 2 mM L-glutamine. The cells were split every third day and diluted to a concentration of 2×10^5 cells/ml one day before experiment. All experiments were performed on exponentially growing cell culture. Cell densities were 2.5×10^4 cells/ml in all experiment.
(§3) A stock solution of Compound (1) and a stock solution of Taxol (positive control) were prepared by dissolving the compound at a concentration of 1 mM in 100% DMSO. Final concentrations were obtained by diluting the stock solution directly into the tissue culture medium. Cells were incubated with varying concentrations of the compounds for 72 hours and the IC50 was determined by MTS (i.e. 3-(4,5,-dimethylthiazol-2-yl)-2,5-diphenyl tetrazolium bromide) assay. IC50 stands for the concentration of compound required to inhibit 50% tumor cell growth.
(§4) The protocol described in Examples 9-10 was used to assay inhibition by Compounds (20) (21) (24) and (28) on the growth of cancer cell lines MES-SA (human uterine sarcoma cell line) and DU-145 (human prostate cancer).
For orientation: Tetrazolium assays rely on reduction of a dye to a coloured formazan, in cell work by metabolically active cells.

The subject of the next test is MES-SA and DU-145. Nature of the test: in vitro activity over MES-SA and DU-145. The format is cell-based. The following applies: Homo sapiens; range over both cell lines; read-out: IC50 against MES-SA and DU-145. On the procedure: as §2, §3, §4
The test system of test [2] is MES-SA (human uterine sarcoma). Nature of the test: In vitro anti-cancer activity, MTS growth inhibition assay, MES-SA. The format is cell-based. On the procedure: as §1, §2, §3, §4
The subject of another test is p388 (murine leukemia). Nature of the test: In vitro anti-cancer activity, MTS growth inhibition assay, p388. The format is cell-based. The following applies: Mus musculus, p388 cells, 72 hours. On the procedure: as §1, §2, §3
The test system of the next test is U937 (human leukemia). Nature of the test: In vitro anti-cancer activity, MTS growth inhibition assay, U-937. The format is cell-based. The following applies: U-937 cells, 72 hours. On the procedure: as §1, §2, §3
The test system of test [3] is MES-SA/DX5 (multi-drug resistant human uterine sarcoma cell line). Nature of the test: In vitro activity against multi-drug resistant cell line MES-SA/DX5. The format is cell-based. On the procedure: as §2, §3
(§5) In vitro activity was determined in two MDR (Multi Drug Resistant) human cancer cell lines. HL-60/TX1000 was isolated in vitro by subculturing HL-60 in progressively higher concentration of Taxol. HL-60/TX1000 cells over-express mdr-1 mRNA and p-glycoprotein, as determined by western blot and immunofluorescence labeling with antiPGP antibodies. The cell is cross-resistant to Taxol, Vincristine, Adriamycin, Etoposide and Doxorubicin. MES-SA/Dx5 was established in the presence of increasing concentrations of Doxorubicin. […] MES-SA/Dx5 was purchased from ATCC.
(§6) The procedure for culturing the cells and assaying cancer cell growth inhibition were as described in Example 3.
The protocol described in Examples 9-10 was used to assay inhibition by Compounds (2)-(8) on the growth of the multidrug resistant cancer cell line MES-SA/DX5, which is a MDR uterine sarcoma cell line.

Test [4] deals with HL-60/TX1000 (multi-drug resistant human myeloid leukemia cell line). Nature of the test: In vitro activity against multi-drug resistant cell line HL-60/TX1000. The class given is cell-based. To be noted: HL60/TX1000, HL-60/TX1000 MDR cells (Table 2). On the procedure: as §2, §3, §5, §6
Test [5] deals with MDA435 (human breast cancer). Nature of the test: In vitro anti-cancer activity, MTS growth inhibition assay, MDA-435. The format is cell-based. To be noted: MDA-435 cells, 72 hours. On the procedure: as §1, §2, §3
The test system of test [6] is HL-60 (human myeloid leukemia). Nature of the test: In vitro anti-cancer activity, MTS growth inhibition assay, HL-60. The format is cell-based. To be noted: HL-60 cells, 72 hours. On the procedure:
as §1, §2, §3

For test [7], the system named is MDR cell lines (MES-SA/DX5, HL-60/TX1000). Nature of the test: in vitro activity over the two MDR cell lines. The class given is cell-based, human. The following applies: Homo sapiens; range over MES-SA/DX5 and HL-60/TX1000; read-out: IC50 against the MDR cell lines. On the procedure: as §2, §3, §5, §6
For test [8], the system named is MIP101 (human colon cancer). Nature of the test: In vitro anti-cancer activity, MTS growth inhibition assay, MIP-101. To be noted: MIP-101 cells, 72 hours. The format is cell-based. On the procedure: as §1, §2, §3
Setting [9] is: DU-145 cells (Table 4, Example 13), read-out: IC50 DU-145.
The mark [10] stands for this setting: MES-SA cells (Table 4, Example 13), read-out: IC50 MES-SA.
The mark [11] stands for this setting: MES-SA/DX5 MDR cells (Table 3, Example 12).

The term IC50 denotes the concentration needed to halve the response being measured. On to `Cc1cc(NC(=O)C(=O)c2cc(Cc3ccc(C#N)s3)n3ccccc23)sn1` [Compound (28), 2-[3-(5-cyano-thiophen-2-ylmethyl)-indolizin-1-yl]-N-(3-methyl-isothiazol-5-yl)-2-oxo-acetamide], for which the IC50 in [1] (setting [9]) is 100 nM; in the test with MES-SA and DU-145 it was 50 to 100 nM; in [2] (setting [10]) it was 100 nM.

For `CC(=O)O[C@H]1C(=O)[C@@]2(C)[C@H]([C@H](OC(=O)c3ccccc3)[C@]3(O)C[C@H](OC(=O)[C@H](O)[C@@H](NC(=O)c4ccccc4)c4ccccc4)C(C)=C1C3(C)C)[C@]1(OC(C)=O)CO[C@@H]1C[C@@H]2O` [Taxol, reference compound], the IC50 in the test on p388 (murine leukemia) was 10 nM; in the test with U937 (human leukemia), 5 nM; in [1] (DU-145 cells, 72 hours, MTS assay (Table 1), read-out: IC50) it was 5 nM; in test [3] (setting [11]), 5000 nM; in test [4], 5000 nM; in test [5] it was 5 nM. Also, the IC50 in [6] is 5 nM; in test [2] (MES-SA cells, 72 hours, MTS assay (Table 1), read-out: IC50), 5 nM; in test [7], 1000 to 5000 nM; in [8] it was 500 nM.

The compound `O=C(Nc1ccc2ncccc2c1)C(=O)c1cc(Cc2ccc(Cl)cc2)n2ccccc12` [Compound (3)] gave an IC50 in test [3] (setting [11]) of 100 nM.

On to `COc1ccc(Cc2cc(C(=O)C(=O)Nc3cc(C)ns3)c3ccccn23)cc1` [Compound (8)], for which inhibition in test [3] (setting [11]) was half-maximal at 100 nM (IC50).

Consider `Cc1ccc2c(C(=O)C(=O)Nc3cc(C)ns3)cc(Cc3ccc(C#N)cc3)n2c1` [Compound (24), 2-[3-(4-Cyano-benzyl)-6-methyl-indolizin-1-yl]-N-(3-methyl-isothiazol-5-yl)-2-oxo-acetamide], for which the IC50 was 50 nM in test [1] (setting [9]); 50 to 100 nM in the test on MES-SA and DU-145; 50 nM in test [2] (setting [10]).

For the compound `Cc1cc(NC(=O)C(=O)c2cc(Oc3ccc(C#N)cc3)n3ccccc23)sn1` [Compound (20), 2-[3-(4-Cyano-phenoxy)-indolizin-1-yl]-N-(3-methyl-isothiazol-5-yl)-2-oxo-acetamide], the IC50 in [1] (setting [9]) is 50 nM; with MES-SA and DU-145, 50 to 100 nM; in test [2] (setting [10]), 50 nM.

In turn, `Cc1cc(NC(=O)C(=O)c2cc(Cc3ccccc3)n3ccccc23)sn1` [Compound (6)] returned an IC50 in [3] (setting [11]) of 50 nM.

`Cc1cc(NC(=O)C(=O)c2cc(Cc3ccc(Cl)cc3)n3ccccc23)sn1` [Compound (2)] gave an IC50 in [3] (setting [11]) of 60 nM.

Consider `Cc1cc(NC(=O)C(=O)c2cc(Cc3ccc(C#N)cc3)n3cc(F)ccc23)sn1` [Compound (4)], for which the IC50 in [3] (setting [11]) came to 50 nM.

Compound `N#Cc1ccc(Cc2cc(C(=O)C(=O)Nc3ccc4ncccc4c3)c3ccccn23)cc1` [Compound (5)] came in with an IC50 in [3] (setting [11]) of 100 nM.

Turning to `Cc1cc(NC(=O)C(=O)c2cc(N(C)c3ccc(C#N)cc3)n3ccccc23)sn1` [Compound (21), 2-{3-[(4-Cyano-phenyl)-methyl-amino]-indolizin-1-yl}-N-(3-methyl-isothiazol-5-yl)-2-oxo-acetamide], the concentration for half-maximal inhibition (IC50) in [1] (setting [9]) was 50 nM; in the test with MES-SA and DU-145, 50 to 100 nM; in test [2] (setting [10]), 50 nM.

For the compound `Cc1cc(NC(=O)C(=O)c2cc(Cc3ccc(F)cc3)n3ccccc23)sn1` [Compound (7)], the IC50 in test [3] (setting [11]) was determined as 50 nM.

On to `CC[C@]1(O)C[C@H]2CN(CCc3c([nH]c4ccccc34)[C@@](C(=O)OC)(c3cc4c(cc3OC)N(C=O)[C@H]3[C@@](O)(C(=O)OC)[C@H](OC(C)=O)[C@]5(CC)C=CCN6CC[C@]43[C@@H]65)C2)C1` [Vincristine], for which the IC50 was 1000 nM in test [3] (MES-SA/Dx5, MES-SA/DX-5 MDR cells (Table 2)); 5000 nM in test [4]; 1000 to 5000 nM in [7].
